Patent US20080004253A1, “Thiazolopyrimidine modulators of TRPV1” (priority 2006, published 2008)

Legend:
[1] = biological target: T1, human TRPV1 (Homo sapiens, UniProt Q8NER1); assay: Functional assay: block of capsaicin-induced Ca2+ influx, human assay (hTRPV1/HEK293, FLIPR); assay type: cell-based; conditions: hTRPV1/HEK293 cells, 150 nM capsaicin challenge, Fluo-3 fluorescence; mean; > value = solubility limit in assay medium
T1 construct: expressed in transfected cells; host or cells: HEK293 (hTRPV1/HEK293), zeocin selection
T1 sequence (Q8NER1 whole entry): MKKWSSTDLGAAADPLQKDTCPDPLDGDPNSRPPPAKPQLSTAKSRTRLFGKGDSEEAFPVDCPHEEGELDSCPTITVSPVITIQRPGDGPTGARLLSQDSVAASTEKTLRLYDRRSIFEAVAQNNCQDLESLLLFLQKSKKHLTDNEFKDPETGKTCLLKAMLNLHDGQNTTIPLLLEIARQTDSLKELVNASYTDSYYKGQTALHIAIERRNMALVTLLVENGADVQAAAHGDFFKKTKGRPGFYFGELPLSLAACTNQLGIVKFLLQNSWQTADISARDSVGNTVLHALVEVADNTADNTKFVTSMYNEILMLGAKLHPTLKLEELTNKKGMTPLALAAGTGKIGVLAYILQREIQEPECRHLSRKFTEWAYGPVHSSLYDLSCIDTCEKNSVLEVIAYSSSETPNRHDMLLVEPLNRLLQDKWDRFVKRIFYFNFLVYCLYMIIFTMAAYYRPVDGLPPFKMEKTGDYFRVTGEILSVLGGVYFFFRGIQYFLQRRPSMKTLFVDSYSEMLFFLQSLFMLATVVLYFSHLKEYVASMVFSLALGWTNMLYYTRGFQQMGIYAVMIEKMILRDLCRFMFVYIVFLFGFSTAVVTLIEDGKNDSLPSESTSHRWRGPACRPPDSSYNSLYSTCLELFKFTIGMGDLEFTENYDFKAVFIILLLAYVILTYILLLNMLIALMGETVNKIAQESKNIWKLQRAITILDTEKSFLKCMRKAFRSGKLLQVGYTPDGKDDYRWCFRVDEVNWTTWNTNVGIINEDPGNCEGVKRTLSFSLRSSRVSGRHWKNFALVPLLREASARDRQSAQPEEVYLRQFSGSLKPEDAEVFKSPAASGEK
In short: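 HEK293 cells stably expressing human TRPV1, fluo3-loaded, preincubated 30 min with compound (serial 3-fold dilutions from 10 μM, duplicate) in 20 μM Ca2+ buffer. Capsaicin response taken as fluo3 fluorescence change before vs 100 s after agonist; IC50 by non-linear regression, mean values; free base or TFA salt.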

[2] = biological target: T2, rat TRPV1 (Rattus norvegicus, UniProt O35433); assay: Functional assay: block of capsaicin-induced Ca2+ influx, rat assay (rTRPV1/HEK293, FLIPR); assay type: cell-based; conditions: rTRPV1/HEK293 cells, capsaicin challenge, Fluo-3 fluorescence; mean; > value = solubility limit in assay medium
T2 construct: expressed in transfected cells; host or cells: HEK293 (rTRPV1/HEK293), geneticin selection
T2 sequence (O35433 whole entry): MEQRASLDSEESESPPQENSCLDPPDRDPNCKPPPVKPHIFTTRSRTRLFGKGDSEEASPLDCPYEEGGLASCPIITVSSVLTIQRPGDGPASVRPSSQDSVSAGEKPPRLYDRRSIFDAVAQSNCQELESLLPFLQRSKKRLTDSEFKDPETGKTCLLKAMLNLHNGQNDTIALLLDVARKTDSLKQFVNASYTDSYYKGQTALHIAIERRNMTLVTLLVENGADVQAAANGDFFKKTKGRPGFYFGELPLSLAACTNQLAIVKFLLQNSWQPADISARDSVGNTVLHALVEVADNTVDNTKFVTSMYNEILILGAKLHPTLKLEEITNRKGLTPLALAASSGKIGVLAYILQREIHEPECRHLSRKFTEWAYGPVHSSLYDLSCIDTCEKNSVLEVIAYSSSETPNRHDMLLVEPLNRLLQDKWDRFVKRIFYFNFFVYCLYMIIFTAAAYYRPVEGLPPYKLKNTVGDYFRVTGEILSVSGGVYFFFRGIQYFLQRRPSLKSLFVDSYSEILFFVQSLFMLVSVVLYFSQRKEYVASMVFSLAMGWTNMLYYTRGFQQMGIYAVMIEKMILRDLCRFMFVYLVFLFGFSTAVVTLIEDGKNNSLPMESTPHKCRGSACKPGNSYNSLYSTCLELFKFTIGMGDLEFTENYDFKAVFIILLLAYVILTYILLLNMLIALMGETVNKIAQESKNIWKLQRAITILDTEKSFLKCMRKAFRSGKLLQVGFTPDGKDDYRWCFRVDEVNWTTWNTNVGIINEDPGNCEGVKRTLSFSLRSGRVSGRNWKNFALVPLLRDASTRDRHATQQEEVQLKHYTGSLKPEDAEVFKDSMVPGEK
In short: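 HEK293 cells expressing rat TRPV1, loaded with fluo3 and preincubated 30 min with compound in 20 μM Ca2+ buffer before capsaicin challenge. Block read as fluo3 fluorescence change over 100 s after agonist, 3-fold series from 10 μM in duplicate. IC50 by non-linear regression, mean values.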

| SMILES | IC50 [1] [nM] | IC50 [2] [nM] |
| --- | --- | --- |
| Cc1nc(Nc2ccc(S(=O)(=O)N3CCCC3)cc2)c2nc(Nc3c(Cl)cccc3Cl)sc2n1 [Example 73, N^2-(2,6-Dichloro-phenyl)-5-methyl-N^7-[4-(pyrrolidine-1-sulfonyl)-phenyl]-thiazolo[5,4-d]pyrimidine-2,7-diamine] | 1 | 1 |
| Cc1nc(Nc2ccc(C(C)(C)O)cc2)c2nc(Nc3c(Cl)cccc3Cl)sc2n1 [Example 74, 2-{4-[2-(2,6-Dichloro-phenylamino)-5-methyl-thiazolo[5,4-d]pyrimidin-7-ylamino]-phenyl}-propan-2-ol] | 1 | 0.05 |
| CN(C)S(=O)(=O)c1ccc(Nc2ncnc3sc(Nc4c(Cl)cccc4Cl)nc23)cc1 [Example 75, 4-[2-(2,6-Dichloro-phenylamino)-thiazolo[5,4-d]pyrimidin-7-ylamino]-N,N-dimethyl-benzenesulfonamide] | 1 | 1 |
| O=S(=O)(c1ccc(Nc2ncnc3sc(Nc4c(Cl)cccc4Cl)nc23)cc1)N1CCCC1 [Example 76, N^2-(2,6-Dichloro-phenyl)-N^7-[4-(pyrrolidine-1-sulfonyl)-phenyl]-thiazolo[5,4-d]pyrimidine-2,7-diamine] | 1 | 1 |
| Cc1nc(Nc2ccc(S(=O)(=O)C(F)(F)F)cc2)c2nc(Nc3c(Cl)cccc3Cl)sc2n1 [Example 77, N^2-(2,6-Dichloro-phenyl)-5-methyl-N^7-(4-trifluoromethanesulfonyl-phenyl)-thiazolo[5,4-d]pyrimidine-2,7-diamine] | 1 | 2 |
| Cc1nc(Nc2ccc(S(C)(=O)=O)cc2)c2nc(Nc3c(Cl)cccc3Cl)sc2n1 [Example 78, N^2-(2,6-Dichloro-phenyl)-N^7-(4-methanesulfonyl-phenyl)-5-methyl-thiazolo[5,4-d]pyrimidine-2,7-diamine] | 2 | 1 |
| CC(C)CNc1nc(Nc2ccc(C(F)(F)F)cc2)c2nc(Nc3c(Cl)cccc3Cl)sc2n1 [Example 79, N^2-(2,6-Dichloro-phenyl)-N^5-isobutyl-N^7-(4-trifluoromethyl-phenyl)-thiazolo[5,4-d]pyrimidine-2,5,7-triamine] | 2 | 1 |
| O=S(=O)(c1ccc(Nc2ncnc3sc(Nc4c(Cl)cccc4Cl)nc23)cc1)N1CCOCC1 [Example 80, N^2-(2,6-Dichloro-phenyl)-N^7-[4-(morpholine-4-sulfonyl)-phenyl]-thiazolo[5,4-d]pyrimidine-2,7-diamine] | 2 | 1 |
| Cc1nc(Nc2ccc(S(=O)(=O)N(C)C)cc2)c2nc(Nc3c(Cl)cccc3Cl)sc2n1 [Example 81, 4-[2-(2,6-Dichloro-phenylamino)-5-methyl-thiazolo[5,4-d]pyrimidin-7-ylamino]-N,N-dimethyl-benzenesulfonamide] | 2 | 2 |
| CS(=O)(=O)c1ccc(Nc2ncnc3sc(Nc4c(Cl)cccc4Cl)nc23)cc1F [Example 82, N^2-(2,6-Dichloro-phenyl)-N^7-(3-fluoro-4-methanesulfonyl-phenyl)-thiazolo[5,4-d]pyrimidine-2,7-diamine] | 5 | 1 |
| Cc1ccccc1Nc1nc2c(Nc3ccc(S(=O)(=O)N4CCCC4)cc3)ncnc2s1 [Example 83, N^7-[4-(Pyrrolidine-1-sulfonyl)-phenyl]-N^2-o-tolyl-thiazolo[5,4-d]pyrimidine-2,7-diamine] | 3 | 2 |
| Cc1nc(Nc2ccc(C(C)C)cc2)c2nc(Nc3c(Cl)cccc3Cl)sc2n1 [Example 84, N^2-(2,6-Dichloro-phenyl)-N^7-(4-isopropyl-phenyl)-5-methyl-thiazolo[5,4-d]pyrimidine-2,7-diamine] | 4 | 2 |
| Cc1nc(Nc2ccc(S(=O)(=O)N(C)C)cc2)c2nc(Nc3c(C)cccc3C)sc2n1 [Example 85, 4-[2-(2,6-Dimethyl-phenylamino)-5-methyl-thiazolo[5,4-d]pyrimidin-7-ylamino]-N,N-dimethyl-benzenesulfonamide] | 4 | 3 |
| CC(=O)c1ccc(Nc2nc(C)nc3sc(Nc4c(Cl)cccc4Cl)nc23)cc1 [Example 86, 1-{4-[2-(2,6-Dichloro-phenylamino)-5-methyl-thiazolo[5,4-d]pyrimidin-7-ylamino]-phenyl}-ethanone] | 5 | 3 |
| CS(=O)(=O)c1ccc(Nc2ncnc3sc(Nc4c(Cl)cccc4Cl)nc23)cc1 [Example 87, N^2-(2,6-Dichloro-phenyl)-N^7-(4-methanesulfonyl-phenyl)-thiazolo[5,4-d]pyrimidine-2,7-diamine] | 6 | 4 |
| CN1CCN(S(=O)(=O)c2ccc(Nc3ncnc4sc(Nc5c(Cl)cccc5Cl)nc34)cc2)CC1 [Example 88, N^2-(2,6-Dichloro-phenyl)-N^7-[4-(4-methyl-piperazine-1-sulfonyl)-phenyl]-thiazolo[5,4-d]pyrimidine-2,7-diamine] | 7 | 4 |
| Cc1nc(Nc2ccc(S(=O)(=O)C(F)(F)F)cc2)c2nc(Nc3c(C)cccc3C)sc2n1 [Example 90, N^2-(2,6-Dimethyl-phenyl)-5-methyl-N^7-(4-trifluoromethanesulfonyl-phenyl)-thiazolo[5,4-d]pyrimidine-2,7-diamine] | 7 | 15 |
| Cc1cccc(C)c1Nc1nc2c(Nc3ccc(S(=O)(=O)N4CCOCC4)cc3)ncnc2s1 [Example 91, N^2-(2,6-Dimethyl-phenyl)-N^7-[4-(morpholine-4-sulfonyl)-phenyl]-thiazolo[5,4-d]pyrimidine-2,7-diamine] | 7 | 1 |
| Cc1nc(Nc2ccc(S(=O)(=O)N3CCCC3)cc2)c2nc(Nc3c(C)cccc3C)sc2n1 [Example 92, N^2-(2,6-Dimethyl-phenyl)-5-methyl-N^7-[4-(pyrrolidine-1-sulfonyl)-phenyl]-thiazolo[5,4-d]pyrimidine-2,7-diamine] | 8 | 2 |
| Cc1nc(Nc2ccc(S(=O)(=O)C(C)C)cc2)c2nc(Nc3c(Cl)cccc3Cl)sc2n1 [Example 93, N^2-(2,6-Dichloro-phenyl)-5-methyl-N^7-[4-(propane-2-sulfonyl)-phenyl]-thiazolo[5,4-d]pyrimidine-2,7-diamine] | 8 | 10 |
| CSc1ccc(Nc2nc(C)nc3sc(Nc4c(Cl)cccc4Cl)nc23)cc1 [Example 94, N^2-(2,6-Dichloro-phenyl)-5-methyl-N^7-(4-methylsulfanyl-phenyl)-thiazolo[5,4-d]pyrimidine-2,7-diamine] | 8 | 3 |
| Cc1nc(Nc2ccc(S(C)(=O)=O)cc2)c2nc(Nc3c(C)cccc3C)sc2n1 [Example 95, N^2-(2,6-Dimethyl-phenyl)-N^7-(4-methanesulfonyl-phenyl)-5-methyl-thiazolo[5,4-d]pyrimidine-2,7-diamine] | 10 | 7 |
| Cc1nc(Nc2ccc(C#N)cc2)c2nc(Nc3c(Cl)cccc3Cl)sc2n1 [Example 96, 4-[2-(2,6-Dichloro-phenylamino)-5-methyl-thiazolo[5,4-d]pyrimidin-7-ylamino]-benzonitrile] | 12 | 9 |
| Cc1cccc(C)c1Nc1nc2c(Nc3ccc(S(C)(=O)=O)c(F)c3)ncnc2s1 [Example 97, N^2-(2,6-Dimethyl-phenyl)-N^7-(3-fluoro-4-methanesulfonyl-phenyl)-thiazolo[5,4-d]pyrimidine-2,7-diamine] | 12 | 32 |
| Cc1cccc(C)c1Nc1nc2c(Nc3ccc(S(=O)(=O)N(C)C)cc3)ncnc2s1 [Example 98, 4-[2-(2,6-Dimethyl-phenylamino)-thiazolo[5,4-d]pyrimidin-7-ylamino]-N,N-dimethyl-benzenesulfonamide] | 15 | 7 |
| Cc1cccc(C)c1Nc1nc2c(Nc3ccc(S(=O)(=O)C(F)(F)F)cc3)ncnc2s1 [Example 99, N^2-(2,6-Dimethyl-phenyl)-N^7-(4-trifluoromethanesulfonyl-phenyl)-thiazolo[5,4-d]pyrimidine-2,7-diamine] | 17 | 4 |
| FC(F)(F)c1ccc(Nc2nc(NCCCN3CCOCC3)nc3sc(Nc4c(Cl)cccc4Cl)nc23)cc1 [Example 100, N^2-(2,6-Dichloro-phenyl)-N^5-(3-morpholin-4-yl-propyl)-N^7-(4-trifluoromethyl-phenyl)-thiazolo[5,4-d]pyrimidine-2,5,7-triamine] | 17 | 6 |
| CC(C)Nc1nc(Nc2ccc(C(F)(F)F)cc2)c2nc(Nc3c(Cl)cccc3Cl)sc2n1 [Example 101, N^2-(2,6-Dichloro-phenyl)-N^5-isopropyl-N^7-(4-trifluoromethyl-phenyl)-thiazolo[5,4-d]pyrimidine-2,5,7-triamine] | 18 | 12 |
| Cc1nc(Nc2ccc(S(=O)(=O)C(C)C)cc2)c2nc(Nc3c(C)cccc3C)sc2n1 [Example 102, N^2-(2,6-Dimethyl-phenyl)-5-methyl-N^7-[4-(Propane-2-sulfonyl)-phenyl]-thiazolo[5,4-d]pyrimidine-2,7-diamine] | 18 | 19 |
| Cc1nc(Nc2ccc(SC(C)C)cc2)c2nc(Nc3c(Cl)cccc3Cl)sc2n1 [Example 103, N^2-(2,6-Dichloro-phenyl)-N^7-(4-isopropylsulfanyl-phenyl)-5-methyl-thiazolo[5,4-d]pyrimidine-2,7-diamine] | 20 | 33 |
